Among the data in patent US12139520B2 (priority 2020, dated 2024) are EC50 values, retold here.

Numbered stars: 1 amine (or outer) side, 2 acyl side, 3 side chain; on linkers, the order of the positions; unused ones are H or OH. Bridge positions count the residues as written; N and C are the ends. Square brackets hold non-standard residues; d marks the D form. Peptide text beside a SMILES is read from it. * marks the point of attachment. C20 diacid = O=C(O)CCCCCCCCCCCCCCCCCCC(=O)*; γGlu = O=C(O)[C@H](CCC(=O)[*:2])N[*:1]; Hyp = O=C(O)[C@@H]1C[C@@H](O)CN1

For the test, the target named is T1, hAMY3 receptor (Homo sapiens, UniProt O60896+P30988).
T1 sequence (P30988 25-474): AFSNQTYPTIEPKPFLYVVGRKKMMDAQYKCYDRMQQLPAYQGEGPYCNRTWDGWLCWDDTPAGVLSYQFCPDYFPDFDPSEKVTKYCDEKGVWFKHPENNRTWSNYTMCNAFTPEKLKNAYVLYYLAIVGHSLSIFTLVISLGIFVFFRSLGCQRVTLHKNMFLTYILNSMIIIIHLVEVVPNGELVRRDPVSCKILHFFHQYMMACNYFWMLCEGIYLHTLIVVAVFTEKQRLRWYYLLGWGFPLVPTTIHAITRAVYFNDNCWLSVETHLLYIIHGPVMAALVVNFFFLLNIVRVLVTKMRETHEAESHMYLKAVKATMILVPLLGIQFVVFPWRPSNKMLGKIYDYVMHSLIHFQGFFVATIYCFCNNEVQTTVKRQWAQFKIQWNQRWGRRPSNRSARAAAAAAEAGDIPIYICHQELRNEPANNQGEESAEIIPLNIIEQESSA
T1 sequence (O60896 24-148 partner): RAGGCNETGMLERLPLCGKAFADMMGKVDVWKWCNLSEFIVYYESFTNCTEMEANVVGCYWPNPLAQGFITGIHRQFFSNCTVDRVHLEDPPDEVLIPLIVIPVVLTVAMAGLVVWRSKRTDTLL
The test is described as follows: cAMP assay for in vitro receptor activation, hAMY3-R. The settings on record: cAMP assay, hAMY3 receptor; read-out: hAMY3R EC50. The format is cell-based. In short, it runs like this: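 Thawed cells from a sub-cloned monoclonal hAMY3-overexpressing line are plated in DPBS containing 0.05% casein and 0.5 mM IBMX. Test compounds are added immediately at graded doses for 30 min at room temperature. Reagents for cAMP detection are then added, and TR-FRET is recorded after one hour.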
On to `CC[C@H](C)[C@H](NC(=O)[C@H](CC(N)=O)NC(=O)[C@H](CO)NC(=O)[C@H](CCCNC(=N)N)NC(=O)[C@@H]1CCCN1C(=O)[C@H](C)NC(=O)[C@@H](NC(=O)[C@H](CC(N)=O)NC(=O)[C@H](CC(=O)O)NC(=O)[C@H](CCCCN)NC(=O)[C@H](CC(=O)O)NC(=O)[C@H](CCCCN)NC(=O)[C@H](CC(=O)O)NC(=O)[C@@H](NC(=O)[C@H](Cc1ccccc1)NC(=O)[C@H](CCC(N)=O)NC(=O)[C@H](Cc1ccc(O)cc1)NC(=O)[C@@H](NC(=O)[C@H](CCC(N)=O)NC(=O)[C@H](Cc1c[nH]cn1)NC(=O)[C@H](C)NC(=O)[C@H](CC(C)C)NC(=O)[C@H](CCCNC(=N)N)NC(=O)[C@H](CCC(N)=O)NC(=O)[C@@H](NC(=O)[C@@H](NC(=O)[C@@H]1CSSC[C@H](NC(=O)CN)C(=O)N[C@@H](CCCNC(=N)N)C(=O)N[C@@H]([C@@H](C)O)C(=O)NCC(=O)N[C@@H]([C@@H](C)O)C(=O)N1)[C@@H](C)O)C(C)C)[C@@H](C)CC)[C@@H](C)O)C(C)C)C(=O)NCC(=O)N1CCC[C@H]1C(=O)N[C@@H](CC(N)=O)C(=O)NCC(=O)N1C[C@H](O)C[C@H]1C(N)=O` [compound 151] (H-GCRTGTCTVQRLAHQIYQFTDKDKDNVAPRSNIGPNG[Hyp]-NH2; disulfide 2-7; N-terminus assumed), for which the EC50 worked out at 0.041 nM.

As to `CC[C@H](C)[C@H](NC(=O)[C@H](CC(N)=O)NC(=O)[C@@H](NC(=O)[C@H](CCCNC(=N)N)NC(=O)[C@@H]1CCCN1C(=O)[C@H](C)NC(=O)[C@@H](NC(=O)[C@H](CC(N)=O)NC(=O)[C@H](CC(=O)O)NC(=O)[C@H](CCCCN)NC(=O)[C@H](CC(=O)O)NC(=O)[C@H](CCCCN)NC(=O)[C@H](CC(=O)O)NC(=O)[C@@H](NC(=O)[C@H](Cc1ccccc1)NC(=O)[C@H](CCC(N)=O)NC(=O)[C@H](Cc1ccc(O)cc1)NC(=O)[C@H](CC(C)C)NC(=O)[C@H](Cc1ccccc1)NC(=O)[C@H](Cc1c[nH]cn1)NC(=O)[C@H](C)NC(=O)[C@H](CC(C)C)NC(=O)[C@H](CCCNC(=N)N)NC(=O)[C@H](CCC(N)=O)NC(=O)[C@@H](NC(=O)[C@@H](NC(=O)[C@@H]1CSSC[C@H](NC(=O)CN)C(=O)N[C@@H](CCCNC(=N)N)C(=O)N[C@@H](Cc2ccccc2)C(=O)NCC(=O)N[C@@H]([C@@H](C)O)C(=O)N1)[C@@H](C)O)C(C)C)[C@@H](C)O)C(C)C)[C@@H](C)O)C(=O)NCC(=O)N1CCC[C@H]1C(=O)N[C@@H](CCC(N)=O)C(=O)NCC(=O)N[C@@H](Cc1ccc(O)cc1)C(N)=O` [compound 364] (H-GCRFGTCTVQRLAHFLYQFTDKDKDNVAPRTNIGPQGY-NH2; disulfide 2-7), the EC50 came to 0.01 nM. Take `CC[C@H](C)[C@H](NC(=O)[C@H](CCC(N)=O)NC(=O)[C@H](Cc1c[nH]cn1)NC(=O)[C@H](C)NC(=O)[C@H](CC(C)C)NC(=O)[C@H](CCCNC(=N)N)NC(=O)[C@H](CCC(N)=O)NC(=O)[C@@H](NC(=O)[C@@H](NC(=O)[C@@H]1CSSC[C@H](NC(=O)[C@H](CCCCN)NC(=O)CC[C@H](NC(=O)CCCCCCCCCCCCCCCCCCC(=O)O)C(=O)O)C(=O)N[C@@H](CC(N)=O)C(=O)N[C@@H]([C@@H](C)O)C(=O)N[C@@H](C)C(=O)N[C@@H]([C@@H](C)O)C(=O)N1)[C@@H](C)O)C(C)C)C(=O)N[C@@H](Cc1ccc(O)cc1)C(=O)N[C@@H](CCC(N)=O)C(=O)N[C@@H](Cc1ccccc1)C(=O)N[C@H](C(=O)N[C@@H](CC(N)=O)C(=O)N[C@@H](CCCCN)C(=O)N[C@@H](CC(=O)O)C(=O)N[C@@H](CCCCN)C(=O)N[C@@H](CC(=O)O)C(=O)N[C@@H](CC(N)=O)C(=O)N[C@H](C(=O)N[C@@H](C)C(=O)N1CCC[C@H]1C(=O)N1CCC[C@H]1C(=O)N[C@H](C(=O)N[C@@H](CC(N)=O)C(=O)N[C@H](C(=O)NCC(=O)N[C@@H](CO)C(=O)N[C@@H](CC(N)=O)C(=O)NCC(=O)N1C[C@H](O)C[C@H]1C(N)=O)C(C)C)[C@@H](C)O)C(C)C)[C@@H](C)O` [compound 82] ({C20 diacid-γGlu}-KCNTATCTVQRLAHQIYQFTNKDKDNVAPPTNVGSNG[Hyp]-NH2; disulfide 2-7): the EC50 is 0.015 nM. In the case of `CC[C@H](C)[C@H](NC(=O)[C@H](CCCCN)NC(=O)[C@@H](NC(=O)[C@H](CCCNC(=N)N)NC(=O)[C@@H]1CCCN1C(=O)[C@H](C)NC(=O)[C@@H](NC(=O)[C@H](CC(N)=O)NC(=O)[C@H](CC(=O)O)NC(=O)[C@H](CCCCN)NC(=O)[C@H](CC(=O)O)NC(=O)[C@H](CCCCN)NC(=O)[C@H](CC(=O)O)NC(=O)[C@@H](NC(=O)[C@H](Cc1ccccc1)NC(=O)[C@H](CCC(N)=O)NC(=O)[C@H](Cc1ccc(O)cc1)NC(=O)[C@H](CC(C)C)NC(=O)[C@H](Cc1ccccc1)NC(=O)[C@H](Cc1c[nH]cn1)NC(=O)[C@H](C)NC(=O)[C@H](CC(C)C)NC(=O)[C@H](CCCNC(=N)N)NC(=O)[C@H](CCC(N)=O)NC(=O)[C@@H](NC(=O)[C@@H](NC(=O)[C@@H]1CSSC[C@H](NC(=O)CN)C(=O)N[C@@H](CCCNC(=N)N)C(=O)N[C@@H](Cc2ccccc2)C(=O)NCC(=O)N[C@@H]([C@@H](C)O)C(=O)N1)[C@@H](C)O)C(C)C)[C@@H](C)O)C(C)C)[C@@H](C)O)C(=O)NCC(=O)N1CCC[C@H]1C(=O)N[C@@H](CCC(N)=O)C(=O)NCC(=O)N[C@@H](Cc1ccc(O)cc1)C(N)=O` [compound 365] (H-GCRFGTCTVQRLAHFLYQFTDKDKDNVAPRTKIGPQGY-NH2; disulfide 2-7), the EC50 is 0.012 nM. The figure for `CC[C@H](C)[C@H](NC(=O)[C@H](CCC(N)=O)NC(=O)[C@H](Cc1c[nH]cn1)NC(=O)[C@H](C)NC(=O)[C@H](CC(C)C)NC(=O)[C@H](CCCNC(=N)N)NC(=O)[C@H](CCC(N)=O)NC(=O)[C@@H](NC(=O)[C@@H](NC(=O)[C@@H]1CSSC[C@H](NC(=O)[C@H](CCCCN)NC(=O)CC[C@H](NC(=O)CCCCCCCCCCCCCCCCCCC(=O)O)C(=O)O)C(=O)N[C@@H](CC(N)=O)C(=O)N[C@@H]([C@@H](C)O)C(=O)N[C@@H](C)C(=O)N[C@@H]([C@@H](C)O)C(=O)N1)[C@@H](C)O)C(C)C)C(=O)N[C@@H](Cc1ccc(O)cc1)C(=O)N[C@@H](CCC(N)=O)C(=O)N[C@@H](Cc1ccccc1)C(=O)N[C@H](C(=O)N[C@@H](CC(=O)O)C(=O)N[C@@H](CCCCN)C(=O)N[C@@H](CC(N)=O)C(=O)N[C@@H](CCCCN)C(=O)N[C@@H](CC(=O)O)C(=O)N[C@@H](CC(N)=O)C(=O)N[C@H](C(=O)N[C@@H](C)C(=O)N1CCC[C@H]1C(=O)N1CCC[C@H]1C(=O)N[C@H](C(=O)N[C@@H](CC(N)=O)C(=O)N[C@H](C(=O)NCC(=O)N[C@@H](CO)C(=O)N[C@@H](CC(N)=O)C(=O)NCC(=O)N1C[C@H](O)C[C@H]1C(N)=O)C(C)C)[C@@H](C)O)C(C)C)[C@@H](C)O` [compound 91] ({C20 diacid-γGlu}-KCNTATCTVQRLAHQIYQFTDKNKDNVAPPTNVGSNG[Hyp]-NH2; disulfide 2-7) is 0.016 nM.

One may read the EC50 as the concentration needed to bring the measured effect to its halfway point.
